In ChEMBL document CHEMBL4706539 (Eur J Med Chem, 2020):
Calls of active or inactive are those of the source. The calls are words filed in the database; no cut-off is given here.

Key:
SW-620 [1] = assay: Antiproliferative activity against human SW-620 cells assessed as reduction in cell growth incubated for 72 hrs by MTT assay; format: functional, cell-based; conditions: SW-620, 72 h
Raji = assay: Antiproliferative activity against human Raji cells assessed as reduction in cell growth incubated for 72 hrs by MTT assay; format: functional, cell-based
HEK293 = assay: Cytotoxicity against human HEK293 cells assessed as reduction in cell growth incubated for 72 hrs by MTT assay; format: cell-based; conditions: HEK293, 72 h
COLO357 [2] = assay: Antiproliferative activity against human COLO357 cells assessed as reduction in cell growth incubated for 72 hrs by MTT assay; format: functional, cell-based; conditions: COLO357, 72 h
HeLa = assay: cells; conditions: Homo sapiens, 72 h
Description: Antiproliferative activity against human HeLa cells assessed as reduction in cell growth incubated for 72 hrs by MTT assay

HaCaT = assay: Cytotoxicity against human HaCat cells assessed as reduction in cell growth incubated for 72 hrs by MTT assay; format: cell-based
PANC-1 = assay: Antiproliferative activity against human PANC-1 cells assessed as reduction in cell growth incubated for 72 hrs by MTT assay; format: functional, cell-based; conditions: PANC-1, 72 h
[3] = Acute toxicity in C57BL/6 mouse assessed as mouse death at 5 mg/kg, iv measured after 16 hrs; format: organism-based; conditions: in vivo
[4] = Acute toxicity in iv dosed CBA mouse assessed as mouse death at 5 mg/kg, iv measured after 16 hrs; format: organism-based; conditions: in vivo
[5] = Acute toxicity in iv dosed A/Sn mouse assessed as mouse death at 5 mg/kg, iv measured after 16 hrs; format: organism-based; conditions: in vivo
[6] = Acute toxicity in iv dosed BALB/c mouse assessed as mouse death at 5 mg/kg, iv measured after 16 hrs; format: organism-based; conditions: in vivo
[7] = Acute toxicity in iv dosed CD-1 mouse assessed as mouse death at 5 mg/kg, iv measured after 16 hrs; format: organism-based; conditions: in vivo
[8] = Acute toxicity in iv dosed C57BL/6 mouse assessed as lethal dose; format: organism-based; conditions: in vivo
Tubulin (Homo sapiens) [9] = target: T1, Tubulin (Homo sapiens) (UniProt P68371+Q9H4B7+P0DPH7+P68366+Q13509+Q71U36+P04350+Q3ZCM7+P07437+P68363+Q9BQE3+Q6PEY2+Q13885+Q9BVA1+Q9BUF5); assay: Inhibition of tubulin assembly in human SW-620 cells assessed as induction of chromosome disturbance at 5 nM incubated for 24 hrs by Hoechst 33342 staining based confocal microscopic analysis; format: cell-based
SW-620 [10] = assay: Induction of cell cycle arrest in human SW-620 cells assessed as accumulation at G1 phase at 5 nM incubated for 48 hrs by RNase/PI staining based flow cytometry analysis (reference value: 65 %); format: functional
Tubulin (Homo sapiens) [11] = target: T1, Tubulin (Homo sapiens); assay: Inhibition of tubulin assembly in human COLO357 cells assessed as induction of tubulin dissipation at 5 nM incubated for 24 hrs by Hoechst 33342 staining based confocal microscopic analysis; format: cell-based
Tubulin (Homo sapiens) [12] = target: T1, Tubulin (Homo sapiens); assay: Inhibition of tubulin assembly in human COLO357 cells assessed as induction of chromosome disturbance at 5 nM incubated for 24 hrs by Hoechst 33342 staining based confocal microscopic analysis; format: cell-based
Tubulin (Homo sapiens) [13] = target: T1, Tubulin (Homo sapiens); assay: Inhibition of tubulin assembly in human SW-620 cells assessed as disruption of mitotic spindle at 5 nM incubated for 24 hrs by Hoechst 33342 staining based confocal microscopic analysis; format: cell-based
Tubulin (Homo sapiens) [14] = target: T1, Tubulin (Homo sapiens); assay: Inhibition of tubulin assembly in human COLO357 cells assessed as disruption of mitotic spindle at 5 nM incubated for 24 hrs by Hoechst 33342 staining based confocal microscopic analysis; format: cell-based
Ovis aries = organism: Ovis aries; assay: Inhibition of lamb brain tubulin polymerization assessed as reduction in microtubule assembly at 0.5 to 5 uM incubated for 40 mins at […] by spectrophotometric analysis relative to control; format: tissue-based; conditions: dose 0.5-5 µM
COLO357 [15] = assay: Induction of cell cycle arrest in human COLO357 cells assessed as accumulation at apoptotic phase at 5 nM incubated for 48 hrs by RNase/PI staining based flow cytometry analysis (reference value: 1.3 %); format: functional
[16] = Acute toxicity in C57BL/6 mouse assessed as mouse death at 10 mg/kg, iv; format: organism-based; conditions: in vivo
SW-620 [17] = assay: Induction of cell cycle arrest in human SW-620 cells assessed as accumulation at G2/M phase at 5 nM incubated for 48 hrs by RNase/PI staining based flow cytometry analysis (reference value: 16 %); format: functional
COLO357 [18] = assay: Induction of cell cycle arrest in human COLO357 cells assessed as accumulation at G2/M phase at 5 nM incubated for 48 hrs by RNase/PI staining based flow cytometry analysis (reference value: 13 %); format: functional
Tubulin (Homo sapiens) [19] = target: T1, Tubulin (Homo sapiens); assay: Inhibition of tubulin assembly in human SW-620 cells assessed as induction of tubulin dissipation at 5 nM incubated for 24 hrs by Hoechst 33342 staining based confocal microscopic analysis; format: cell-based
COLO357 [20] = assay: Induction of cell cycle arrest in human COLO357 cells assessed as accumulation at G1 phase at 5 nM incubated for 48 hrs by RNase/PI staining based flow cytometry analysis (reference value: 72 %); format: functional
SW-620 [21] = assay: Induction of cell cycle arrest in human SW-620 cells assessed as accumulation at apoptotic phase at 5 nM incubated for 48 hrs by RNase/PI staining based flow cytometry analysis (reference value: 0.8 %); format: functional
[22] = Acute toxicity in mouse assessed as lethal dose measured after 7 days; conditions: in vivo, time 7 day

Row | Structure (SMILES) | IC50 (SW-620 [1]) [nM] | IC50 (Raji) [nM] | IC50 (HEK293) [nM] | IC50 (COLO357 [2]) [nM] | IC50 (HeLa) [nM] | IC50 (HaCaT) [nM] | IC50 (PANC-1) [nM] | further results
1 | COc1cc2c(c(OC)c1OC)-c1cc(I)c(OC(=O)/C=C/C(F)(F)F)cc1[C@@H](NC(C)=O)CC2 | 6 | 180 | 170 | 30 |  |  |  | 
2 | COc1cc2c(c(OC)c1OC)-c1cc3c(cc1[C@@H](NC(C)=O)CC2)OC/C3=C(\C)CCC=C(C)C | > 20000 | 800 | 4280 | 4330 | 4250 | 4500 | 810 | 
3 | COc1cc2c(c(OC)c1OC)-c1cc3c(cc1[C@@H](NC(C)=O)CC2)OCC3=C(C)C | 780 | 420 | 400 | 860 | 410 | 390 | 850 | 
4 | C=C1c2cc3c(cc2OC1(F)F)[C@@H](NC(C)=O)CCc1cc(OC)c(OC)c(OC)c1-3 | 0.04 | 0.05 | 0.03 | 0.02 | 0.03 | 0.03 | 0.01 | Activity [3]: Non-Toxic; Activity [4]: Non-Toxic; Activity [5]: Non-Toxic; Activity [6]: Non-Toxic; Activity [7]: Non-Toxic; LD50 [8]: > 10 mg/kg
5 | C/C=C1/COc2cc3c(cc21)-c1c(cc(OC)c(OC)c1OC)CC[C@@H]3NC(C)=O | 6 | 3.8 | 3.8 | 5 | 32 | 14 | 32 | 
6 | C=C1COc2cc3c(cc21)-c1c(cc(OC)c(OC)c1OC)CC[C@@H]3NC(C)=O | 0.02 | 0.03 | 0.08 | 0.04 | 1.7 | 0.3 | 0.08 | Activity [3]: Non-Toxic; inhibition (Tubulin (Homo sapiens) [9]): Active; Activity (SW-620 [10]): 12%; inhibition (Tubulin (Homo sapiens) [11]): Active; inhibition (Tubulin (Homo sapiens) [12]): Active; inhibition (Tubulin (Homo sapiens) [13]): Active; inhibition (Tubulin (Homo sapiens) [14]): Active; inhibition (Ovis aries): 50%; Activity (COLO357 [15]): 2%; Activity [4]: Non-Toxic; Activity [5]: Non-Toxic; Activity [16]: Toxic; Activity (SW-620 [17]): 76%; Activity [6]: Non-Toxic; Activity (COLO357 [18]): 77%; inhibition (Tubulin (Homo sapiens) [19]): Active; Activity [7]: Non-Toxic; LD50 [8]: 10 mg/kg; Activity (COLO357 [20]): 18%; Activity (SW-620 [21]): 4%
7 | COc1cc2c(c(OC)c1OC)-c1cc3c(C)cc(=O)oc3cc1[C@@H](NC(C)=O)CC2 | 140 | 16 | 32 | 160 |  |  |  | 
8 | CC/C=C1/COc2cc3c(cc21)-c1c(cc(OC)c(OC)c1OC)CC[C@@H]3NC(C)=O | 810 | 90 | 166 | 800 | 150 | 135 | 80 | 
9 | COC(=O)/C=C/c1cc2c(cc1O)[C@@H](NC(C)=O)CCc1cc(OC)c(OC)c(OC)c1-2 | > 4000 | > 4000 | > 4000 | > 4000 |  |  |  | 
10 | COc1cc2c(c(OC)c1OC)-c1cc3c(C)coc3cc1[C@@H](NC(C)=O)CC2 | 1.3 | 1.3 | 5 | 1.3 | 0.8 | 0.5 | 2.1 | 
11 | C/C=C/C(=O)Oc1cc2c(cc1I)-c1c(cc(OC)c(OC)c1OC)CC[C@@H]2NC(C)=O | 4 | 139 | > 4000 | 161 |  |  |  | 
12 | COc1cc2c(c(OC)c1OC)-c1ccc(OC)c(=O)cc1[C@@H](NC(C)=O)CC2 [COLCHICINE] | 2.4 | 16 |  |  | 1.3 | 0.3 | 0.1 | Activity [3]: Toxic; Activity (SW-620 [10]): 7.4%; Activity (COLO357 [15]): 2%; Activity [4]: Toxic; Activity [5]: Toxic; Activity (SW-620 [17]): 74%; LD50 at 168 h [22]: 1.6 mg/kg; Activity [6]: Toxic; Activity (COLO357 [18]): 31%; Activity [7]: Toxic; Activity (COLO357 [20]): 62%; Activity (SW-620 [21]): 8.1%
13 | COC(=O)Cc1coc2cc3c(cc12)-c1c(cc(OC)c(OC)c1OC)CC[C@@H]3NC(C)=O | 4100 | 3900 | 4420 | 830 | 805 | 810 | 820 | 
14 | COc1cc2c(c(OC)c1OC)-c1cc3c(cc1[C@@H](NC(C)=O)CC2)OC/C3=C\c1ccccc1 | > 20000 | 4600 | > 20000 | > 20000 | 4020 | 4370 | > 20000 | 
15 | COc1cc2c(c(OC)c1OC)-c1cc(I)c(OC(=O)C=C(C)C)cc1[C@@H](NC(C)=O)CC2 | 32 | 160 | 805 | 160 |  |  |  | 
16 | COc1cc(-c2cc(=O)oc3cc4c(cc23)-c2c(cc(OC)c(OC)c2OC)CC[C@@H]4NC(C)=O)ccc1O | 160 | 837 | 4000 | 870 |  |  |  | 
17 | C=CC(=O)Oc1cc2c(cc1I)-c1c(cc(OC)c(OC)c1OC)CC[C@@H]2NC(C)=O | 30 | 32 | 158 | 150 |  |  |  | 
18 | COc1cc2c(c(OC)c1OC)-c1cc(I)c(OC(=O)/C=C/Cl)cc1[C@@H](NC(C)=O)CC2 | 800 | 825 | 810 | 810 |  |  |  | 
